How the values were obtained:
[1] = system: S. aureus; assay: Growth inhibition curves / MICs in S. aureus cultures (strain not named or summary over strains); type: cell-based, Staphylococcus aureus
Experimental: (§1) Antimicrobial susceptibility testing. Minimal inhibitory concentrations (MIC) of all nucleoside analogues and TOUCANs against each bacteria strain were determined using broth microdilution method. A single colony obtained from overnight culture on tryptone soy agar with 5% defibrinated sheep blood was inoculated in cation-adjusted Mueller Hinton Broth and adjusted to 10^6 CFU/mL. TOUCANs were prepared in PBS+/+ (treatment) and serial dilutions were made in 96-well polystyrene round bottom microwell plates with 50 μL final volume for each concentration. PBS+/+ was used as untreated control. Next, 50 μL bacteria solutions were added to each well to a final bacteria concentration of 5×10^5 CFU/mL. Plates were incubated at 37° C. in Cytation 1 Cell Imaging Multimode Reader. Growth curves were obtained by measuring optical densities at 600 nm every 10 minutes for 18 hours using Cytation 1 Cell Imaging Multimode Reader. In addition, visual inspection of the plates was carried out after 18 hours and photographs were taken. MICs were defined as the lowest drug concentration in the microwell at which bacterial growth was not visible at the end of the incubation period. Besides MIC determination, specificity of TOUCAN 7mGe was also shown with subcultures on chromogenic media. For this purpose, 5 μL of different concentrations of each strain were inoculated onto CHROM agar Orientation Media (Becton Dickinson) and the bacterial growth of each bacteria strain tested was observed by naked eye after incubation at 37° C. for 24 hours. Finally, photographs of the chromogenic media were taken.

[2] = system: P. aeruginosa ATCC 10145; assay: Broth microdilution MIC and growth inhibition (control bacteria); type: cell-based
Text: (§2) Bacteria strains. S. aureus NCTC 12493 (MRSA), S. aureus ATCC 29213 (MSSA), S. aureus ATCC 43300 (MRSA), S. aureus ATCC 1707 (MRSA), S. aureus ATCC 1717 (MRSA), S. aureus ATCC 1747 (MRSA), S. aureus ATCC 1761 (MRSA), S. aureus ATCC 1766 (MRSA), S. aureus ATCC 1768 (MRSA), S. epidermidis ATCC 35984, E. coli ATCC 25922, K. pneumoniae ATCC 13883, P. mirabilis ATCC 25933, S. enterica ATCC 14028 and P. aeruginosa ATCC 10145 strains were used in this study. Bacteria were initially inoculated onto tryptone soy agar with 5% defibrinated sheep blood (Thermo Fisher Scientific, Inc., Waltham, MA, USA) and incubated at 37° C. for 24 hours. Then, single colonies of each strain were transferred to tryptone soy broth (Thermo Fisher Scientific) for the nuclease activity assay or antimicrobial susceptibility testing, respectively.
as §1

[3] = system: K. pneumoniae ATCC 13883; assay: as above; type: cell-based
Text: as §2, §1

[4] = system: S. enterica ATCC 14028; assay: as above; type: cell-based
Text: as §2, §1

[5] = system: P. mirabilis ATCC 25933; assay: as above; type: cell-based, Proteus mirabilis
Text: as §2, §1

[6] = system: E. coli ATCC 25922; assay: as above; type: cell-based, Escherichia coli
Text: as §2, §1

[7] = system: Pancreatic cancer cells (ASPC-1); assay: Anti-cancer drug susceptibility testing, pancreatic cancer cells, 72 h; type: cell-based; conditions: 72 h cultures; Gemcitabine alone, TOUCAN 7mGe spiked with MN; FIG. 13
Experimental: (§3) Anti-cancer drug susceptibility testing for TOUCAN 7mGe. Gemcitabine and equivalent 7mGe solutions were prepared as explained before. Then, 7mGe was pre-exposed to 10 μl of 10 U MN for 1 hour at 37° C. (7mGe+MN). 100 μl of both drugs (Gemcitabine and 7mGe+MN) were added to the related wells and serially diluted using PBS+/+making the final concentrations between 100-2 μg/μl. Breast cancer cells (MDAMB231) and Pancreatic cancer cells (ASPC-1) were prepared as 10.000 cells/ml and 100 μl cell suspensions were added to each well. The plate was incubated at 37° C. for 72 hours. At 48th hour of incubation, 100 μl CyQUANT® Direct Cell Proliferation Assay kit was added to each well. Cell counts and images were taken at the end of 72 hours incubation period using Cytation 1 Cell Imaging Multi-Mode Reader.

[8] = system: other pathogenic bacteria; assay: Specificity study by visual inspection on chromogenic media, non-targeted control bacteria; type: cell-based; conditions: all concentrations tested, FIG. 1e
Experimental: as §1, with “For this purpose, 5 μL of different concentrations of each strain were inoculated onto CHROM agar Orientation Media (Becton Dickinson) and the bacterial growth of each bacteria strain tested was observed by naked eye after incubation at 37° C. for 24 hours. Finally, photographs of the chromogenic media were taken.” left out

[9] = system: S. aureus; assay: Specificity study by visual inspection on chromogenic media, targeted bacteria; type: cell-based, Staphylococcus aureus; conditions: FIG. 1e
Experimental: as §1, with “For this purpose, 5 μL of different concentrations of each strain were inoculated onto CHROM agar Orientation Media (Becton Dickinson) and the bacterial growth of each bacteria strain tested was observed by naked eye after incubation at 37° C. for 24 hours. Finally, photographs of the chromogenic media were taken.” left out

[10] = system: S. aureus ATCC 1768 (MRSA); assay: Broth microdilution MIC and growth inhibition; type: cell-based, Staphylococcus aureus
Text: as §2, §1

[11] = system: S. aureus NCTC 12493 (MRSA); assay: Broth microdilution MIC and growth inhibition; type: cell-based, Staphylococcus aureus; conditions: for growth inhibition, dose response: NCTC-12493 (MRSA), FIG. 5a-b
Text: as §2, §1

[12] = system: S. aureus ATCC 29213 (MSSA); assay: Broth microdilution MIC and growth inhibition; type: cell-based, Staphylococcus aureus; conditions: S. aureus ATCC 29213 (MSSA)
Text: as §2, §1

[13] = system: S. aureus ATCC 1766 (MRSA); assay: Broth microdilution MIC and growth inhibition; type: cell-based, Staphylococcus aureus; conditions: S. aureus ATCC 1766 (MRSA)
Text: as §2, §1

[14] = system: S. aureus ATCC 1707 (MRSA); assay: Broth microdilution MIC and growth inhibition; type: cell-based, Staphylococcus aureus
Text: as §2, §1

[15] = system: S. aureus ATCC 43300 (MRSA); assay: Broth microdilution MIC and growth inhibition; type: cell-based, Staphylococcus aureus
Text: as §2, §1

[16] = system: S. aureus ATCC 1761 (MRSA); assay: Broth microdilution MIC and growth inhibition; type: cell-based, Staphylococcus aureus
Text: as §2, §1

[17] = system: S. aureus ATCC 1747 (MRSA); assay: Broth microdilution MIC and growth inhibition; type: cell-based, Staphylococcus aureus
Text: as §2, §1

[18] = system: S. aureus ATCC 1717 (MRSA); assay: Broth microdilution MIC and growth inhibition; type: cell-based, Staphylococcus aureus
Text: as §2, §1

[19] = system: Breast cancer cells (MDAMB231); assay: Anti-cancer drug susceptibility testing, breast cancer cells, 72 h; type: cell-based; conditions: 72 h of treatment; Gemcitabine alone, TOUCAN 7mGe spiked with MN; FIG. 14
Experimental: as §3

[20] = system: S. epidermidis ATCC 35984; assay: Broth microdilution MIC and growth inhibition (control bacteria); type: cell-based, Staphylococcus epidermidis
Text: as §2, §1

mU-mU-mU-mU-T-T-Ge [TOUCAN 7mGe]
growth inhibition ([1]; S. aureus (target), FIG. 1d): high growth inhibition | bacterial growth inhibition ([1]; S. aureus cultures, optical density (OD) over 18 h, FIG. 1b): 96% | inhibition of bacterial growth (therapeutic efficacy) ([1]; combinations of the R-S-D moieties, FIG. 1c): more than 99% | MIC ([2]; 18 h, TOUCAN as NA equivalent): >40 µg/mL | TOUCAN % Growth inhibition ([2]; mean ± SD, n = 3): 0 ± 0.00% | MIC ([3]; 18 h, TOUCAN as NA equivalent): >40 µg/mL | TOUCAN % Growth inhibition ([3]; mean ± SD, n = 3): 4.9 ± 3.1% | MIC ([4]; 18 h, TOUCAN as NA equivalent): >40 µg/mL | TOUCAN % Growth inhibition ([4]; mean ± SD, n = 3): 12.5 ± 5.7% | MIC ([5]; 18 h, TOUCAN as NA equivalent): >40 µg/mL | TOUCAN % Growth inhibition ([5]; mean ± SD, n = 3): 8.3 ± 0.6% | MIC ([6]; 18 h, TOUCAN as NA equivalent): >40 µg/mL | TOUCAN % Growth inhibition ([6]; mean ± SD, n = 3): 0 ± 0.00% | killing of pancreatic cancer cells (viability) [7]: efficient in killing | viability on chromogenic media [8]: remained viable | inhibition on chromogenic media ([9]; 5 μg/mL): partially inhibited | inhibition on chromogenic media ([9]; 10 and 20 μg/mL): completely inhibited | MIC ([10]; 18 h, TOUCAN as NA equivalent): >40 µg/mL | TOUCAN % Growth inhibition ([10]; mean ± SD, n = 3): 61.9 ± 1.1% | growth inhibition, dose response ([11]; 1.25 and 2.5 g/mL): partial effect | growth inhibition, dose response ([11]; concentrations from 5 to 40 μg/mL): 96% | TOUCAN MIC/NA MIC TOUCAN Efficacy Ratio (TER) ([11]; S. aureus NCTC 12493 (MRSA)): 1250 | MIC ([11]; S. aureus NCTC 12493 (MRSA), 18 h, TOUCAN as NA equivalent): 5 µg/mL | TOUCAN % Growth inhibition ([11]; S. aureus NCTC 12493 (MRSA), mean ± SD, n = 3): 85.3% | MIC ([12]; 18 h, TOUCAN as NA equivalent): >40 µg/mL | TOUCAN % Growth inhibition ([12]; mean ± SD, n = 3): 52.5 ± 1.1% | MIC ([13]; 18 h, TOUCAN as NA equivalent): >40 µg/mL | TOUCAN % Growth inhibition ([13]; mean ± SD, n = 3): 86.2 ± 0.9% | MIC ([14]; 18 h, TOUCAN as NA equivalent): >40 µg/mL | TOUCAN % Growth inhibition ([14]; mean ± SD, n = 3): 61.5 ± 0.5% | MIC ([15]; 18 h, TOUCAN as NA equivalent): >40 µg/mL | TOUCAN % Growth inhibition ([15]; mean ± SD, n = 3): 66.6 ± 1.6% | TOUCAN MIC/NA MIC TOUCAN Efficacy Ratio (TER) [16]: 2500 | MIC ([16]; 18 h, TOUCAN as NA equivalent): 40 µg/mL | TOUCAN % Growth inhibition ([16]; mean ± SD, n = 3): 90.1% | MIC ([17]; 18 h, TOUCAN as NA equivalent): >40 µg/mL | TOUCAN % Growth inhibition ([17]; mean ± SD, n = 3): 44.9 ± 0.7% | MIC ([18]; 18 h, TOUCAN as NA equivalent): >40 µg/mL | TOUCAN % Growth inhibition ([18]; mean ± SD, n = 3): 72.9 ± 1.2% | therapeutic effect in breast cancer cells (viability) [19]: slightly higher | associated toxicity to non-targeted bacteria ([20]; S. epidermidis (control), FIG. 1d): minimal associated toxicity | MIC ([20]; S. epidermidis ATCC 35984, 18 h, TOUCAN as NA equivalent): >40 µg/mL | TOUCAN % Growth inhibition ([20]; S. epidermidis ATCC 35984, mean ± SD, n = 3): 3.6 ± 2.0% | growth inhibition, dose response ([20]; S. epidermidis, all concentrations tested, FIG. 5): No growth inhibition

Reference: patent publication US20250269039A1, “THERAPEUTIC-OLIGONUCLEOTIDES ACTIVATED BY NUCLEASES” (priority 2020, published 2025)
